Data from patent publication US12172983B2, “EGFR inhibitors” (Blueprint Medicines Corporation, priority 2019, dated 2024).
Like-named read-outs stand apart in the source and are kept apart here.

Key:
EGFR (L858R T790M C797S) = biological target: T1, EGFR (L858R T790M C797S) (Homo sapiens, UniProt P00533, C797S/L858R/T790M); test: Biochemical EGFR inhibition assay (Caliper mobility shift), EGFR LRTMCS mutant; settings: inhibitory activity against EGFR LRTMCS mutant; apparent IC50; read-out: Ext Enz LRTMCS
T1 construct: purchased SignalChem E10-122VG
T1 sequence (P00533 25-1210 T790M/C797S/L858R): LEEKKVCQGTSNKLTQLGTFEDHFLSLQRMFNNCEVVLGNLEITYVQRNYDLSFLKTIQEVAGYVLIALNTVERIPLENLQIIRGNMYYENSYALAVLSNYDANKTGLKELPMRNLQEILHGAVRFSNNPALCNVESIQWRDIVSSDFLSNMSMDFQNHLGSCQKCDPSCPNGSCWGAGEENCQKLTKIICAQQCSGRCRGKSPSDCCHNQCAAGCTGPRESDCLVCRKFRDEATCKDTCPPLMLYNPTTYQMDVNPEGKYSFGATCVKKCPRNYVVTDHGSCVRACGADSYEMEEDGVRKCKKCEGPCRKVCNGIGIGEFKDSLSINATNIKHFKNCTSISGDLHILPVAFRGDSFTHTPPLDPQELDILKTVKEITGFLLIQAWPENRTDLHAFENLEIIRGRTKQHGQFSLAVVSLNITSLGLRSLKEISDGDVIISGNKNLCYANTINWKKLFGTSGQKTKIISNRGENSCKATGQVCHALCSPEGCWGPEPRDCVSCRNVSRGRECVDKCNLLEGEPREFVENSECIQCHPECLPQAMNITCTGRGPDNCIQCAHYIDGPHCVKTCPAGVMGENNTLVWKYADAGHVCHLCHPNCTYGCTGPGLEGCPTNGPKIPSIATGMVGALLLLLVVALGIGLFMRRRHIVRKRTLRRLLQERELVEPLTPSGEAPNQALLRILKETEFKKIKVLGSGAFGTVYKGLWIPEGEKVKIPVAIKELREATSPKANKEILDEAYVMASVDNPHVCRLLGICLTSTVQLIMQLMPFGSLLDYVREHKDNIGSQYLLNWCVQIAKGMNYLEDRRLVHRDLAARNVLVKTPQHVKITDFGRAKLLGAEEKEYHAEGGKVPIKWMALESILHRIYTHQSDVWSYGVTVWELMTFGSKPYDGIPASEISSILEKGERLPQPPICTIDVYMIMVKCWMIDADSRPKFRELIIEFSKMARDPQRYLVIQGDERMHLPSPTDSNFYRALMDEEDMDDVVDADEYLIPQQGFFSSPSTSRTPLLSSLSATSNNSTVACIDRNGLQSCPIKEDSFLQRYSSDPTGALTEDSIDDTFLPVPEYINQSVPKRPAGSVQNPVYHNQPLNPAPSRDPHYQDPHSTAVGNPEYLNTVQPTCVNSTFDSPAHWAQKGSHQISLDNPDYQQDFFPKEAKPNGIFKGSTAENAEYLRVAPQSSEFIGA
How it was run: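 Caliper mobility shift read-out: product and substrate peptides separated by electrophoresis and quantified. Reactions at 25° C. taken to 10–20% peptide phosphorylation, quenched with 35 mM EDTA. Apparent IC50 from percent activity vs log [compound].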

[1] = tested on: phosphorylation of EGFR (Tyr1068) in NCI-H1975 cell line that harbors the EGFR L858R T790M mutations; test: NCI-H1975 pEGFR AlphaLISA assay; type: cell-based; settings: 4-5 hours incubation, read-out: Ext pEGFR H1975
How it was run: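 Phospho-EGFR Tyr1068 AlphaLISA readout: lysates taken from compound-treated H1975 cells (L858R T790M EGFR) after a 4-5 h exposure at 37 °C. Cells had adhered overnight beforehand. IC50 derived by plotting % pEGFR inhibition against log compound concentration.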

[2] = Homo sapiens, NCI-H1975, inhibition of phosphorylation of mutant EGFR in NCI-H1975 cells

Structure (SMILES)	IC50 (EGFR (L858R T790M C797S))	IC50 [1, 2]	IC50 ([1]; inhibition of phosphorylation of mutant EGFR in NCI-H1975 cells)
CC(C)c1ccc(N2C[C@@H](CS(C)(=O)=O)[C@@H]2C)c2cnc(Nc3ccnc(N4CC[C@@H]5C[C@H]4CO5)n3)cc12 (single isomer, unassigned) [Compound 41, N-(2-((1S,5R)-6-oxa-2-azabicyclo[3.2.1]octan-2-yl)pyrimidin-4-yl)-5-isopropyl-8-((2S,3R)-2-methyl-3-((methylsulfonyl)methyl)azetidin-1-yl)isoquinolin-3-amine or N-(2-((1R,5S)-6-oxa-2-azabicyclo[3.2.1]octan-2-yl)pyrimidin-4-yl)-5-isopropyl-8-((2S,3R)-2-methyl-3-((methylsulfonyl)methyl)azetidin-1-yl)isoquinolin-3-amine]	≤ 15 nM	≤ 10 nM	
CCS(=O)(=O)CC1CN(c2ccc(C)c3cc(Nc4ccnc(N5CC[C@@H](O)[C@@](C)(F)C5)n4)ncc23)C1 (single isomer, unassigned) [Compound 25]	≤ 15 nM	30.1 to 50 nM	
CC(C)c1ncc(N2C[C@H](CS(C)(=O)=O)[C@H]2C)c2cnc(Nc3ccnc(N4CC[C@H](OC5CC5)[C@H](F)C4)n3)cc12 [Compound 224, N-{2-[(3R,4S)-4-cyclopropoxy-3-fluoropiperidin-1-yl]pyrimidin-4-yl}-8-[(2R,3S)-3-(methanesulfonylmethyl)-2-methylazetidin-1-yl]-5-(propan-2-yl)-2,6-naphthyridin-3-amine]	15.1 to 20 nM	≤ 10 nM	
CC(C)c1cnc(N2CC(CS(C)(=O)=O)C2)c2cnc(Nc3ccnc(N4C[C@H](F)[C@@H](F)C4)n3)cc12 (single isomer, unassigned) [Compound 8, N-{2-[(3S,4S)-3,4-difluoropyrrolidin-1-yl]pyrimidin-4-yl}-8-[3-(methanesulfonylmethyl)azetidin-1-yl]-5-(propan-2-yl)-2,7-naphthyridin-3-amine or N-{2-[(3R,4R)-3,4-difluoropyrrolidin-1-yl]pyrimidin-4-yl}-8-[3-(methanesulfonylmethyl)azetidin-1-yl]-5-(propan-2-yl)-2,7-naphthyridin-3-amine]	≤ 15 nM		30.1 to 50 nM
CC(C)c1ccc(N2C[C@H](CS(C)(=O)=O)[C@H]2C)c2cnc(Nc3ccnc(N4CC[C@@H](F)[C@@H](O)C4)n3)cc12 (single isomer, unassigned) [Compound 269, (3S,4R)-4-fluoro-1-[4-({8-[(2R,3S)-3-(methanesulfonylmethyl)-2-methylazetidin-1-yl]-5-(propan-2-yl)isoquinolin-3-yl}amino)pyrimidin-2-yl]piperidin-3-ol or (3R,4S)-4-fluoro-1-[4-({8-[(2R,3S)-3-(methanesulfonylmethyl)-2-methylazetidin-1-yl]-5-(propan-2-yl)isoquinolin-3-yl}amino)pyrimidin-2-yl]piperidin-3-ol]	≤ 15 nM	≤ 10 nM	
[2H]C([2H])([2H])O[C@@H]1CCN(c2nccc(Nc3cc4c(C(C)C)cnc(N5C[C@H](CS(C)(=O)=O)[C@H]5C)c4cn3)n2)C[C@@H]1F (single isomer, unassigned) [Compound 284]	≤ 15 nM	≤ 10 nM	
CC(C)c1ccc(N2CC(CS(C)(=O)=O)C2)c2cnc(Nc3ccnc(N4CC[C@@H](F)[C@@H](O)C4)n3)cc12 (single isomer, unassigned) [Compound 26, (3R,4S)-4-fluoro-1-[4-({8-[3-(methanesulfonylmethyl)azetidin-1-yl]-5-(propan-2-yl)isoquinolin-3-yl}amino)pyrimidin-2-yl]piperidin-3-ol or (3S,4R)-4-fluoro-1-[4-({8-[3-(methanesulfonylmethyl)azetidin-1-yl]-5-(propan-2-yl)isoquinolin-3-yl}amino)pyrimidin-2-yl]piperidin-3-ol]	≤ 15 nM	≤ 10 nM	
CCS(=O)(=O)C[C@H]1CN(c2ccc(F)c3cc(Nc4ccnc(N5CC[C@@H](OC)[C@@H](F)C5)n4)ncc23)[C@@H]1C [Compound 85, 8-[(2R,3S)-3-[(ethanesulfonyl)methyl]-2-methylazetidin-1-yl]-5-fluoro-N-{2-[(3S,4R)-3-fluoro-4-methoxypiperidin-1-yl]pyrimidin-4-yl}isoquinolin-3-amine]	≤ 15 nM	10.1 to 20 nM	
CCS(=O)(=O)CC1CN(c2ccc(C(C)C)c3cc(Nc4cnnc(N5CC[C@H](OC)[C@H](F)C5)n4)ncc23)C1 [Compound 281, 8-{3-[(ethanesulfonyl)methyl]azetidin-1-yl}-N-{3-[(3R,4S)-3-fluoro-4-methoxypiperidin-1-yl]-1,2,4-triazin-5-yl}-5-(propan-2-yl)isoquinolin-3-amine]	≤ 15 nM	≤ 10 nM	
CC(C)c1ccc(N2CC(CS(C)(=O)=O)C2)c2cnc(Nc3ccnc(N4CCC5(CC4)COCCO5)n3)cc12 [Compound 167, N-(2-{1,4-dioxa-9-azaspiro[5,5]undecan-9-yl}pyrimidin-4-yl)-8-[3-(methanesulfonylmethyl)azetidin-1-yl]-5-(propan-2-yl)isoquinolin-3-amine]	≤ 15 nM	10.1 to 20 nM	
CCS(=O)(=O)C[C@H]1CN(c2ncc(C(C)C)c3cc(Nc4ccnc(N5CC[C@](C)(O)[C@H](F)C5)n4)ncc23)[C@@H]1C (single isomer, unassigned) [Compound 191]	≤ 15 nM	≤ 10 nM	
CC(C)c1ccc(N2CC(C)(CS(C)(=O)=O)C2)c2cnc(Nc3ccnc(N4CC[C@@H](O)[C@@](C)(F)C4)n3)cc12 (single isomer, unassigned) [Compound 112]	≤ 15 nM	10.1 to 20 nM	
CCS(=O)(=O)C[C@H]1CN(c2nnc(C(C)C)c3cc(Nc4ccnc(N5CC[C@@H](OC)[C@@H](F)C5)n4)ncc23)[C@@H]1C [Compound 206, N-{4-[(2R,3S)-3-[(ethanesulfonyl)methyl]-2-methylazetidin-1-yl]-1-(propan-2-yl)pyrido[3,4-d]pyridazin-7-yl}-2-[(3S,4R)-3-fluoro-4-methoxypiperidin-1-yl]pyrimidin-4-amine]	≤ 15 nM	≤ 10 nM	

Further lines, results first:

IC50 (EGFR (L858R T790M C797S))	IC50 [1, 2]	IC50 ([1]; inhibition of phosphorylation of mutant EGFR in NCI-H1975 cells)	Structure (SMILES)
≤ 15 nM	20.1 to 30 nM		CC(C)c1ccc(N2CC(CS(C)(=O)=O)C2)c2cnc(Nc3ccnc(N4CC[C@@H](F)[C@H](O)C4)n3)cc12 (single isomer, unassigned) [Compound 24, (3S,4S)-4-fluoro-1-[4-({8-[3-(methanesulfonylmethyl)azetidin-1-yl]-5-(propan-2-yl)isoquinolin-3-yl}amino)pyrimidin-2-yl]piperidin-3-ol or (3R,4R)-4-fluoro-1-[4-({8-[3-(methanesulfonylmethyl)azetidin-1-yl]-5-(propan-2-yl)isoquinolin-3-yl}amino)pyrimidin-2-yl]piperidin-3-ol]
15.1 to 20 nM	20.1 to 30 nM		CC(C)c1ccc(N2CC(CS(C)(=O)=O)C2)c2cnc(Nc3ccnc(N4CC[C@](F)([C@@H](C)O)C4)n3)cc12 (single isomer, unassigned) [Compound 58, (1R)-1-[(3R)-3-fluoro-1-[4-({8-[3-(methanesulfonylmethyl)azetidin-1-yl]-5-(propan-2-yl)isoquinolin-3-yl}amino)pyrimidin-2-yl]pyrrolidin-3-yl]ethan-1-ol or (1S)-1-[(3S)-3-fluoro-1-[4-({8-[3-(methanesulfonylmethyl)azetidin-1-yl]-5-(propan-2-yl)isoquinolin-3-yl}amino)pyrimidin-2-yl]pyrrolidin-3-yl]ethan-1-ol]
≤ 15 nM	20.1 to 30 nM		CC(C)c1ccc(N2CC(CS(C)(=O)=O)C2)c2cnc(Nc3ccnc(N4CCC5(CC4)OCCO5)n3)cc12 [Compound 88, N-(2-{1,4-dioxa-8-azaspiro[4.5]decan-8-yl}pyrimidin-4-yl)-8-[3-(methanesulfonylmethyl)azetidin-1-yl]-5-(propan-2-yl)isoquinolin-3-amine]
≤ 15 nM	≤ 10 nM		CO[C@@H]1CN(c2nccc(Nc3cc4c(C(C)C)ccc(N5C[C@H](CS(C)(=O)=O)[C@H]5C)c4cn3)n2)C[C@H](F)[C@@H]1O (single isomer, unassigned) [Compound 204, (3S,4R,5R)-3-fluoro-1-[4-({8-[(2R,3S)-3-(methanesulfonylmethyl)-2-methylazetidin-1-yl]-5-(propan-2-yl)isoquinolin-3-yl}amino)pyrimidin-2-yl]-5-methoxypiperidin-4-ol or (3R,4S,5S)-3-fluoro-1-[4-({8-[(2R,3S)-3-(methanesulfonylmethyl)-2-methylazetidin-1-yl]-5-(propan-2-yl)isoquinolin-3-yl}amino)pyrimidin-2-yl]-5-methoxypiperidin-4-ol]
15.1 to 20 nM	10.1 to 20 nM		[2H]C([2H])([2H])OC1CCN(c2nccc(Nc3cc4c(C(C)C)ccc(N5C[C@H](CS(C)(=O)=O)[C@H]5C)c4cn3)n2)CC1 [Compound 263, 8-[(2R,3S)-3-(methanesulfonylmethyl)-2-methylazetidin-1-yl]-N-{2-[4-(^2H3)methoxypiperidin-1-yl]pyrimidin-4-yl}-5-(propan-2-yl)isoquinolin-3-amine]
≤ 15 nM	≤ 10 nM		CC(C)c1ncc(N2C[C@H](CS(C)(=O)=O)[C@H]2C)c2cnc(Nc3ccnc(N4CC[C@@H](O)[C@@](C)(F)C4)n3)cc12 (single isomer, unassigned) [Compound 129]
≤ 15 nM	≤ 10 nM		CCS(=O)(=O)C[C@H]1CN(c2ccc(C(C)C)c3cc(Nc4ccnc(N5CC[C@@H](OCCO)[C@@H](F)C5)n4)ncc23)[C@@H]1C [Compound 244, 2-((3S,4R)-1-(4-(8-((2R,3S)-3-(ethylsulfonylmethyl)-2-methylazetidin-1-yl)-5-isopropylisoquinolin-3-ylamino)pyrimidin-2-yl)-3-fluoropiperidin-4-yloxy)ethanol]
